Patent publication US20070270586A1, “NOVEL CRYSTAL OF 7-[2-[(2-AMINOTHIAZOL-4-YL)-2-HYDROXYIMINOACETAMIDE-3-VINYL-3-CEPHEM-4-CARBOXYLIC ACID (SYN ISOMER) AND METHOD FOR PREPARATION THEREOF” (priority 2003, published 2007)

Experiment: speed of dissolution in water (10 mg crystal in 50 mL ion exchanged water, 60 rpm, concentration by liquid chromatography)
Type: physicochemical
Conditions: for concentration (elution %): 10 mg in 50 mL ion exchanged water, 60 revolutions per minute
Method: The anhydrous form of a B type crystal of 7-[2-(2-aminothiazol-4-yl)-2-hydroxyiminoacetamide]-3-vinyl-3-cephem-4-carboxylic acid (syn isomer) obtained in Example 2, and the A type crystal of a compound (I) obtained by deposition of a crystal from a sodium bicarbonate aqueous solution having a pH value of 3.6 and a temperature of 22° C. in Example 1 were used, and the speed of dissolution thereof in water was measured.
Namely, each 10 mg of the above-mentioned A type crystal or B type crystal was put into 50 mL of ion exchanged water and dissolved at a revolution per minute of 60, and the concentrations of each crystal in the solution with the lapse of time were measured by liquid chromatography.

Row | concentration (elution %) (lapse time 110 min) | concentration (elution %) (lapse time 340 min) | concentration (elution %) (lapse time 700 min) | SMILES | solubility in water compared with conventional A type crystal (conclusion from Table 5)
1 | 32.7 elution % | 39.7 elution % | 63.7 elution % | C=CC1=C(C(=O)O)N2C(=O)C(NC(=O)/C(=N\O)c3csc(N)n3)C2SC1 (stereo not drawn) [A type crystal, 7-[2-(2-aminothiazol-4-yl)-2-hydroxyiminoacetamide]-3-vinyl-3-cephem-4-carboxylic acid (syn isomer), reference compound] | 
2 | 72.8 elution % | 78.4 elution % | 91.1 elution % | C=CC1=C(C(=O)O)N2C(=O)C(NC(=O)/C(=N\O)c3csc(N)n3)C2SC1 (stereo not drawn) [B type crystal, 7-[2-(2-aminothiazol-4-yl)-2-hydroxyiminoacetamide]-3-vinyl-3-cephem-4-carboxylic acid (syn isomer)] | more excellent solubility in water as compared with a conventional A type crystal
